Test results published in patent US8710043B2, “TRPM8 antagonists and their use in treatments” (Amgen Inc., priority 2011, dated 2014).

Target: T1, human TRPM8 (Homo sapiens, UniProt Q7Z2W7)
T1 construct: expressed in transfected cells; host or cells: Chinese hamster ovary (CHO) cells, T-REx tetracycline-inducible system, co-transfected with aequorin
Experiment: Luminescence readout assay for measuring intracellular calcium, icilin activation
Format: cell-based
Conditions: CHO cells expressing human TRPM8, aequorin luminescence, 1 μM icilin activation; read-out: hTRPM8 IC50
How it was run: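 The read-out was luminescence reporting intracellular calcium, recorded by a CCD-based luminometer. Compounds were preincubated for 2.5 min before agonist challenge with 1 μM icilin. Human TRPM8 was expressed in a stable T-REx CHO line, induced with 0.5 μg/mL tetracycline the day before.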

T1 sequence (Q7Z2W7 whole entry): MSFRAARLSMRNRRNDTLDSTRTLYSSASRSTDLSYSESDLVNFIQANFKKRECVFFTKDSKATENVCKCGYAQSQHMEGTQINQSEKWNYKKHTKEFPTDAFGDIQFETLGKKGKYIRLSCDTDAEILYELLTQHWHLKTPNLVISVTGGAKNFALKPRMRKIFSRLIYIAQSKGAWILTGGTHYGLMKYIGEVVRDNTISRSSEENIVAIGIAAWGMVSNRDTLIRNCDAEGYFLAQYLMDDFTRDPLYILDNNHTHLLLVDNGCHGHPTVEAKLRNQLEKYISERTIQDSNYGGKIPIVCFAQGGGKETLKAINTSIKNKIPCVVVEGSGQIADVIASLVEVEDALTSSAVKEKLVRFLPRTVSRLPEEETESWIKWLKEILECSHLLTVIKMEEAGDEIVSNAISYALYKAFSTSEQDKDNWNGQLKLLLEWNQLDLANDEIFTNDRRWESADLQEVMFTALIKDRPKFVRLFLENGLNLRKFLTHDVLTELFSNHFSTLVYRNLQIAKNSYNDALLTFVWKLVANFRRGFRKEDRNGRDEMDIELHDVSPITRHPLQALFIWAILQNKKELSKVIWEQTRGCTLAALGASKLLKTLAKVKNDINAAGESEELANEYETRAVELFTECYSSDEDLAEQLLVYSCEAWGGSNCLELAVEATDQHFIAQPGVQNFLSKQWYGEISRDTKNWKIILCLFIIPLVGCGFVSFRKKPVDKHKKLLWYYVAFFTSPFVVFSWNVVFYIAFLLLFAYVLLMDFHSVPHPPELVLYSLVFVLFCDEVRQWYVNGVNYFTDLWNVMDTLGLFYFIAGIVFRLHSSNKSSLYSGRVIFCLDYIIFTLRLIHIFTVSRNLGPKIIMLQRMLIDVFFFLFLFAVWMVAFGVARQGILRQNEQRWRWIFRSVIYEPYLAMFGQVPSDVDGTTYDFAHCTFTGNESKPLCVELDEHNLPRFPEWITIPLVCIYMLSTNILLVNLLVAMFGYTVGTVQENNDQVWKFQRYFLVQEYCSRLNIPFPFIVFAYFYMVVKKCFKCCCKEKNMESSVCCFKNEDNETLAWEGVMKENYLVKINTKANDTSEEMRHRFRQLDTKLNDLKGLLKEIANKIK

| IC50 | Structure (SMILES) |
| --- | --- |
| 29.7 nM | O=C1CCc2cc(C(=O)N[C@@H](c3ccc(C(F)(F)F)cc3)c3ncccc3F)ccc2N1 [Example 318, (S)-N-((3-fluoropyridin-2-yl)(4-(trifluoromethyl)phenyl)methyl)-2-oxo-1,2,3,4-tetrahydroquinoline-6-carboxamide] |
| 132 nM | O=C(N[C@@H](c1ccc(C(F)(F)F)cc1)c1ncccc1F)c1cc2n(n1)CCCO2 [Example 320, (S)-N-((3-fluoropyridin-2-yl)(4-(trifluoromethyl)phenyl)methyl)-6,7-dihydro-5H-pyrazolo[5,1-b][1,3]oxazine-2-carboxamide] |
| 164 nM | O=C(N[C@@H](c1ccc(C(F)(F)F)cc1)c1ncccc1F)c1n[nH]c2c1CCC2 [Example 321, (S)-N-((3-fluoropyridin-2-yl)(4-(trifluoromethyl)phenyl)methyl)-1,4,5,6-tetrahydrocyclopenta[c]pyrazole-3-carboxamide] |
| 202 nM | O=C(N[C@@H](c1ccc(C(F)(F)F)cc1)c1ncccc1F)c1n[nH]c2c1CCCC2 [Example 322, (S)-N-((3-fluoropyridin-2-yl)(4-(trifluoromethyl)phenyl)methyl)-4,5,6,7-tetrahydro-1H-indazole-3-carboxamide] |
| 302 nM | O=C(N[C@@H](c1cc(F)cc(C(F)(F)F)c1)c1ncccc1F)c1ccc(=O)[nH]c1 [Example 327, (S)-N-((3-fluoro-5-(trifluoromethyl)phenyl)(3-fluoropyridin-2-yl)methyl)-6-oxo-1,6-dihydropyridine-3-carboxamide] |
| 1060 nM | Cn1cc(C(=O)N[C@@H](c2cc(F)cc(C(F)(F)F)c2)c2ncccc2F)ccc1=O [Example 328, (S)-N-((3-fluoro-5-(trifluoromethyl)phenyl)(3-fluoropyridin-2-yl)methyl)-1-methyl-6-oxo-1,6-dihydropyridine-3-carboxamide] |
| 841 nM | O=C(N[C@@H](c1cc(F)cc(F)c1)c1ncccc1F)c1ccc(=O)[nH]c1 [Example 329, (S)-N-((3,5-difluorophenyl)(3-fluoropyridin-2-yl)methyl)-6-oxo-1,6-dihydropyridine-3-carboxamide] |
| 136 nM | COc1ccc([C@H](NC(=O)c2ccc(=O)[nH]c2)c2ncccc2F)cc1F [Example 336, (S)-N-((3-fluoro-4-methoxyphenyl)(3-fluoropyridin-2-yl)methyl)-6-oxo-1,6-dihydropyridine-3-carboxamide] |

Further lines, the compound ahead of its results:

| Structure (SMILES) | IC50 |
| --- | --- |
| O=C(N[C@@H](c1ccc(C(F)(F)F)cc1)c1ncccc1F)c1ccc(=O)[nH]n1 [Example 317, (S)-N-((3-fluoropyridin-2-yl)(4-(trifluoromethyl)phenyl)methyl)-6-oxo-1,6-dihydropyridazine-3-carboxamide] | 38.9 nM |
| O=C(N[C@@H](c1ccc(C(F)(F)F)cc1)c1ncccc1F)c1c[nH]c(=O)cn1 [Example 319, (S)-N-((3-fluoropyridin-2-yl)(4-(trifluoromethyl)phenyl)methyl)-5-oxo-4,5-dihydropyrazine-2-carboxamide] | 132 nM |
| Cc1cccnc1[C@@H](NC(=O)c1ccc(-c2nc(=O)o[nH]2)cc1)c1ccc(C(F)(F)F)cc1 [Example 323, (S)-N-((3-methylpyridin-2-yl)(4-(trifluoromethyl)phenyl)methyl)-4-(5-oxo-2,5-dihydro-1,2,4-oxadiazol-3-yl)benzamide] | 36.7 nM |
| Cc1cc(C)cc([C@H](NC(=O)c2ccc(=O)[nH]c2)c2ncccc2F)c1 [Example 324, (S)-N-((3,5-dimethylphenyl)(3-fluoropyridin-2-yl)methyl)-6-oxo-1,6-dihydropyridine-3-carboxamide] | 1050 nM |
| Cc1cc(F)cc([C@H](NC(=O)c2ccc(=O)[nH]c2)c2ncccc2F)c1 [Example 325, (S)-N-((3-fluoro-5-methylphenyl)(3-fluoropyridin-2-yl)methyl)-6-oxo-1,6-dihydropyridine-3-carboxamide] | 644 nM |
| Cc1cc(F)cc([C@H](NC(=O)c2ccc(=O)n(C)c2)c2ncccc2F)c1 [Example 326, (S)-N-((3-fluoro-5-methylphenyl)(3-fluoropyridin-2-yl)methyl)-1-methyl-6-oxo-1,6-dihydropyridine-3-carboxamide] | 3210 nM |
| Cn1cc(C(=O)N[C@@H](c2cc(F)cc(F)c2)c2ncccc2F)ccc1=O [Example 330, (S)-N-((3,5-difluorophenyl)(3-fluoropyridin-2-yl)methyl)-1-methyl-6-oxo-1,6-dihydropyridine-3-carboxamide] | 2680 nM |
| O=C(N[C@@H](c1ccc(F)c(F)c1)c1ncccc1F)c1ccc(=O)[nH]c1 [Example 331, (S)-N-((3,4-difluorophenyl)(3-fluoropyridin-2-yl)methyl)-6-oxo-1,6-dihydropyridine-3-carboxamide] | 965 nM |
| Cn1cc(C(=O)N[C@@H](c2ccc(F)c(F)c2)c2ncccc2F)ccc1=O [Example 332, (S)-N-((3,4-difluorophenyl)(3-fluoropyridin-2-yl)methyl)-1-methyl-6-oxo-1,6-dihydropyridine-3-carboxamide] | 268 nM |
| Cc1cc([C@H](NC(=O)c2ccc(=O)[nH]c2)c2ncccc2F)cc(C(F)(F)F)c1 [Example 333, (S)-N-((3-fluoropyridin-2-yl)(3-methyl-5-(trifluoromethyl)phenyl)methyl)-6-oxo-l,6-dihydropyridine-3-carboxamide] | 658 nM |
| Cc1ccc([C@H](NC(=O)c2ccc(=O)[nH]c2)c2ncccc2F)cc1F [Example 334, (S)-N-((3-fluoro-4-methylphenyl)(3-fluoropyridin-2-yl)methyl)-6-oxo-1,6-dihydropyridine-3-carboxamide] | 103 nM |
| Cc1ccc([C@H](NC(=O)c2ccc(=O)n(C)c2)c2ncccc2F)cc1F [Example 335, (S)-N-((3-fluoro-4-methylphenyl)(3-fluoropyridin-2-yl)methyl)-1-methyl-6-oxo-1,6-dihydropyridine-3-carboxamide] | 209 nM |
| COc1ccc([C@H](NC(=O)c2ccc(=O)n(C)c2)c2ncccc2F)cc1F [Example 337, (S)-N-((3-fluoro-4-methoxyphenyl)(3-fluoropyridin-2-yl)methyl)-1-methyl-6-oxo-1,6-dihydropyridine-3-carboxamide] | 313 nM |
| Cc1cc([C@H](NC(=O)c2ccc(=O)[nH]c2)c2ncccc2F)ccc1F [Example 338, (S)-N-((4-fluoro-3-methylphenyl)(3-fluoropyridin-2-yl)methyl)-6-oxo-1,6-dihydropyridine-3-carboxamide] | 264 nM |
| Cc1cc([C@H](NC(=O)c2ccc(=O)n(C)c2)c2ncccc2F)ccc1F [Example 339, (S)-N-((4-fluoro-3-methylphenyl)(3-fluoropyridin-2-yl)methyl)-1-methyl-6-oxo-1,6-dihydropyridine-3-carboxamide] | 915 nM |
| O=C(N[C@@H](c1ccc(F)cc1)c1ncccc1F)c1ccc(=O)[nH]c1 [Example 340, (S)-N-((4-fluorophenyl)(3-fluoropyridin-2-yl)methyl)-6-oxo-1,6-dihydropyridine-3-carboxamide] | 808 nM |
| Cn1cc(C(=O)N[C@@H](c2ccc(F)cc2)c2ncccc2F)ccc1=O [Example 341, (S)-N-((4-fluorophenyl)(3-fluoropyridin-2-yl)methyl)-1-methyl-6-oxo-1,6-dihydropyridine-3-carboxamide] | 4280 nM |
